In ChEMBL document CHEMBL3774333, “Identification of SNAIL1 Peptide-Based Irreversible Lysine-Specific Demethylase 1-Selective Inactivators” (J Med Chem, 2016):
pIC50: −log10 of the molar value. Activity calls are given as the source filed them. No cut-off for these calls is given here.

How the values were obtained:
[1] = tested on: HeLa; assay: Antiproliferative activity against human HeLa cells assessed as inhibition of cell viability at 12.5 to 100 uM treated for 24 hrs measured after 48 hrs by alamar blue assay in absence of fetal bovine serum; type: functional, cell-based
[2] = species on record: Homo sapiens
[3] = target: T1, Lysine-specific demethylase 5A (Homo sapiens, UniProt P29375)
Description: Inhibition of JARID1A (unknown origin) using H3K4me3 peptide substrate preincubated for 5 mins followed by substrate addition by MALDI-TOF mass spectrometric analysis

[4] = target: T2, Lysine-specific histone demethylase 2 (Homo sapiens, UniProt Q8NB78); assay: biochemical
T2 sequence (Q8NB78 whole entry): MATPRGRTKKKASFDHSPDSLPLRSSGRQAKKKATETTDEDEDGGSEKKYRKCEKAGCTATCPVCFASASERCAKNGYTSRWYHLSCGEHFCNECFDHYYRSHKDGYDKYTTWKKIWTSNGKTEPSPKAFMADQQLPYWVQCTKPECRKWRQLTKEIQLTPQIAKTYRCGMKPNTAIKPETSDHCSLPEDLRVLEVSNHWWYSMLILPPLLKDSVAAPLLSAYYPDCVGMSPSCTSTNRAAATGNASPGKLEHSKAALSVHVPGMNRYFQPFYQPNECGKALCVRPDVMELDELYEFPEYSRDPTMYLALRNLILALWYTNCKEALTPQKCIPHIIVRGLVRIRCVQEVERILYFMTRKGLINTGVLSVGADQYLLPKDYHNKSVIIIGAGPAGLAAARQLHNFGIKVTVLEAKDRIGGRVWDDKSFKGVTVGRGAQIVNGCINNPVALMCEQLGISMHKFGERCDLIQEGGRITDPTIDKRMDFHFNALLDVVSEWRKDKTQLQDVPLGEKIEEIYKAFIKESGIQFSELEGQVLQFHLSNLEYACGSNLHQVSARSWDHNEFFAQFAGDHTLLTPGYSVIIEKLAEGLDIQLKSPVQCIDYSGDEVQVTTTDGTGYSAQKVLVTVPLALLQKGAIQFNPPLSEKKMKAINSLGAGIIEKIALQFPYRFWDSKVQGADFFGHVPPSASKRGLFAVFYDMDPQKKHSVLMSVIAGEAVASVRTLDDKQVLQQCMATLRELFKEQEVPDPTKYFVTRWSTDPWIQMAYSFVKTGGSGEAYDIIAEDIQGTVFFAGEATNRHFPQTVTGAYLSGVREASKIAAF
Description: Inhibition of full length N-terminal His-tagged human LSD2 (1 to 822 residues) expressed in Escherichia coli BL21(DE3) cells using H3K4me2 peptide substrate by MALDI-TOF mass spectrometric analysis

[5] = species on record: Homo sapiens; remark: listed apart in the source
[6] = target: T3, Lysine-specific histone demethylase 1A (Homo sapiens, UniProt O60341); conditions: 22 h
Description: Drug metabolism assessed as LSD1 (unknown origin)-mediated compound-FAD adduct formation after 22 hrs by MALDI-TOF mass spectrometric analysis

[7] = species on record: Homo sapiens; remark: listed apart in the source
[8] = target: T3, Lysine-specific histone demethylase 1A; assay: biochemical
Description: Inhibition of full length N-terminal His-tagged human recombinant LSD1 (1 to 852 residues) expressed in Escherichia coli BL21(DE3) cells using H3K4me2 peptide as substrate preincubated for 5 mins followed by substrate addition measured for 30 mins by peroxidase coupled assay

[9] = target: T4, Amine oxidase [flavin-containing] A (Homo sapiens, UniProt P21397); assay: biochemical
T4 sequence (P21397 whole entry): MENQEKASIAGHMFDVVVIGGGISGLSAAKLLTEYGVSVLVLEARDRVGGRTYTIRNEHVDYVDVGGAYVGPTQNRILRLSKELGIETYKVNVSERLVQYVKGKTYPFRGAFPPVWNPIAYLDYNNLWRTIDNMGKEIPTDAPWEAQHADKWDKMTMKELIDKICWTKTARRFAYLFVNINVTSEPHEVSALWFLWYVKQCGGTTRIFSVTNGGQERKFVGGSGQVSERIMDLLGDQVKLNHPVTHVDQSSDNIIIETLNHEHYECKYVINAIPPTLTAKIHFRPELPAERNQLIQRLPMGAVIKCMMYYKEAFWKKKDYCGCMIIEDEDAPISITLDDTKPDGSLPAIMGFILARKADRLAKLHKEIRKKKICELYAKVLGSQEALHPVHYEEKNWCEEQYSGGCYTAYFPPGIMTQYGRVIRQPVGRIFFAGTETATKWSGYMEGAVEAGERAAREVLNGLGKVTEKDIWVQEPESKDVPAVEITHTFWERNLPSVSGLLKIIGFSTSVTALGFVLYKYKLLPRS
Description: Inhibition of human recombinant MAO-A expressed in baculovirus infected BTI insect cells using (4S)-4,5-dihydro-2-(6-hydroxybenzothiazolyl)-4-thiazolecarboxylic acid as substrate incubated for 60 mins by MAO-Glo assay

[10] = target: T3, Lysine-specific histone demethylase 1A; assay: Inhibition of LSD1 in human HeLa cells assessed as H3K4me2/H3 ratio at 20 uM after 24 hrs by Western blot analysis in absence of fetal bovine serum; type: cell-based
[11] = species on record: Homo sapiens; remark: listed apart in the source
[12] = target: T5, Amine oxidase [flavin-containing] B (Homo sapiens, UniProt P27338); assay: biochemical
T5 sequence (P27338 whole entry): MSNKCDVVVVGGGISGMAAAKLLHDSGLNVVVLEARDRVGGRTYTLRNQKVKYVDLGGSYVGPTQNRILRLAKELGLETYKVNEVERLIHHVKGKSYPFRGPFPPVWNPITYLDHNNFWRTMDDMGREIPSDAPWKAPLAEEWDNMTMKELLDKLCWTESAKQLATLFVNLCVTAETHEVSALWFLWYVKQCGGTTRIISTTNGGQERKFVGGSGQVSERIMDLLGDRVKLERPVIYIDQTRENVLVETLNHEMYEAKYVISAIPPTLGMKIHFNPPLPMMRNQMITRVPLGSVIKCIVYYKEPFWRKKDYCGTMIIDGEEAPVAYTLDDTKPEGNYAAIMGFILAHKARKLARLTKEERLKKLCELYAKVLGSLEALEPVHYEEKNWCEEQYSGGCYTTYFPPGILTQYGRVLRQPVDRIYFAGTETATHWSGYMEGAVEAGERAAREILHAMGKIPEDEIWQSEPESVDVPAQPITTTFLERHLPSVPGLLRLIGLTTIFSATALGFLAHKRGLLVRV
Description: Inhibition of human recombinant MAO-B expressed in baculovirus infected BTI insect cells using (4S)-4,5-dihydro-2-(6-hydroxybenzothiazolyl)-4-thiazolecarboxylic acid as substrate incubated for 60 mins by MAO-Glo assay

[13] = target: T6, Lysine-specific histone demethylase 2 (Homo sapiens) (UniProt Q8NB78); assay: Inhibition of LSD2 in human HeLa cells assessed as H3K4me1/H3 ratio at 5 uM after 24 hrs by Western blot analysis in absence of fetal bovine serum; type: cell-based
T6 sequence (whole entry): T2 sequence (Q8NB78 whole entry)

[14] = target: T6, Lysine-specific histone demethylase 2 (Homo sapiens); assay: Inhibition of LSD2 in human HeLa cells assessed as H3K4me1/H3 ratio at 10 uM after 24 hrs by Western blot analysis in absence of fetal bovine serum; type: cell-based
[15] = target: T1, Lysine-specific demethylase 5A; assay: Inhibition of JARID1A in human HeLa cells assessed as H3K4me3/H3 ratio at 20 uM after 24 hrs by Western blot analysis in absence of fetal bovine serum; type: cell-based
[16] = target: T1, Lysine-specific demethylase 5A; assay: Inhibition of JARID1A in human HeLa cells assessed as H3K4me3/H3 ratio at 5 uM after 24 hrs by Western blot analysis in absence of fetal bovine serum; type: cell-based
[17] = target: T6, Lysine-specific histone demethylase 2 (Homo sapiens); assay: Inhibition of LSD2 in human HeLa cells assessed as H3K4me1/H3 ratio at 20 uM after 24 hrs by Western blot analysis in absence of fetal bovine serum; type: cell-based
[18] = target: T1, Lysine-specific demethylase 5A; assay: Inhibition of JARID1A in human HeLa cells assessed as H3K4me3/H3 ratio at 10 uM after 24 hrs by Western blot analysis in absence of fetal bovine serum; type: cell-based
[19] = target: T3, Lysine-specific histone demethylase 1A; assay: Inhibition of LSD1 in human HeLa cells assessed as H3K4me2/H3 ratio at 10 uM after 24 hrs by Western blot analysis in absence of fetal bovine serum; type: cell-based
[20] = target: T3, Lysine-specific histone demethylase 1A; assay: Inhibition of LSD1 in human HeLa cells assessed as H3K4me2/H3 ratio at 5 uM after 24 hrs by Western blot analysis in absence of fetal bovine serum; type: cell-based
[21] = target: T3, Lysine-specific histone demethylase 1A; assay: Inhibition of LSD1 in human HeLa cells assessed as increase in H3K4me2 level after 24 hrs by Western blot analysis in absence of fetal bovine serum; type: cell-based

T1 sequence (P29375 whole entry): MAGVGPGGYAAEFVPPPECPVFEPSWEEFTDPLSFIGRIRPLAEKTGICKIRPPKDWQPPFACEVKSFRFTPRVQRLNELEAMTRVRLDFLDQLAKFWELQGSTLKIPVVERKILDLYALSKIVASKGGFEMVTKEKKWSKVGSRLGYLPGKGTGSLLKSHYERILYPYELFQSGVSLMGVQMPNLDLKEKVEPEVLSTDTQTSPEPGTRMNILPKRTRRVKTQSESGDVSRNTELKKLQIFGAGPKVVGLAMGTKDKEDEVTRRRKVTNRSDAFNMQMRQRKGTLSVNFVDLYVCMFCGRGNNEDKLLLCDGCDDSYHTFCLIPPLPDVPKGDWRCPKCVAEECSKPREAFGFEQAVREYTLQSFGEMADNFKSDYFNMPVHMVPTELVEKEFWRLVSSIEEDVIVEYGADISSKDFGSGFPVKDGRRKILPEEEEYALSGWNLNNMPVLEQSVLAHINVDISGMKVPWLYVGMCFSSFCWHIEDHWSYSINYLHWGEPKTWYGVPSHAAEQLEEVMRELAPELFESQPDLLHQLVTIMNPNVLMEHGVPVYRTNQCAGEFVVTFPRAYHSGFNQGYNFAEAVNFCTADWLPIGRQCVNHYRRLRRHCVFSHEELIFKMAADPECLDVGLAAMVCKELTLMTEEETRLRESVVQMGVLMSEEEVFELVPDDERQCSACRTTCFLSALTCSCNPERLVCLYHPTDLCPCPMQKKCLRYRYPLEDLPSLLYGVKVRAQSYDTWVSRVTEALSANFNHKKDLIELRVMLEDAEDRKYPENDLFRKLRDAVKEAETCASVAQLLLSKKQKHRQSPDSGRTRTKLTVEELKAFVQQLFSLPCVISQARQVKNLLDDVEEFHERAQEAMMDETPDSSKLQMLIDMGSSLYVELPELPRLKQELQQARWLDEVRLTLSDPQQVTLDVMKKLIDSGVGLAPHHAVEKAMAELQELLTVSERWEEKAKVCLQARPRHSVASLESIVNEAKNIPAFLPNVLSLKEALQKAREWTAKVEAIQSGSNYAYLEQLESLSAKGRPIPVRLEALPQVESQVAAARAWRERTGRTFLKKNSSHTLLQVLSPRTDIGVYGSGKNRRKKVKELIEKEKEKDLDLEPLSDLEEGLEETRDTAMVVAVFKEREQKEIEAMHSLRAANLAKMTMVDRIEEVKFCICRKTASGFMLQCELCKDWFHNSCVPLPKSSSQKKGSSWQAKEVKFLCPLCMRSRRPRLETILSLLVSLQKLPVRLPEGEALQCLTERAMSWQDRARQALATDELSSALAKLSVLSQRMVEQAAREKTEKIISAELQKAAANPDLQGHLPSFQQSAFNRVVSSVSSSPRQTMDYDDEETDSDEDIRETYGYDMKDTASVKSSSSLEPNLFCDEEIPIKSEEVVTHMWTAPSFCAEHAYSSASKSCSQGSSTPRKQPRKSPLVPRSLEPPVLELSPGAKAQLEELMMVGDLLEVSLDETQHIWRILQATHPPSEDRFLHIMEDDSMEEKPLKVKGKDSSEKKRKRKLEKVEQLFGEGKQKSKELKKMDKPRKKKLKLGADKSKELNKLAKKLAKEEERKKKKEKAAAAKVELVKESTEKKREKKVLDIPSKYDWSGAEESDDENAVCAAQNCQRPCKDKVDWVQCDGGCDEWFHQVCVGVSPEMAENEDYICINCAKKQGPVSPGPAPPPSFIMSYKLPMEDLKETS

With `CC(C)C[C@@H](NC(=O)[C@@H](CCCNN)NC(=O)[C@@H](CO)NC(=O)[C@H](CCCNC(=N)N)NC(=O)[C@@H]1CCCN1)C(=O)N[C@@H](C(=O)N[C@H](CCCNC(=N)N)C(=O)N[C@H](CCCCN)C(=O)N1CCC[C@@H]1C(=O)N[C@@H](CO)C(=O)N[C@@H](CC(=O)O)C(=O)N1CCC[C@H]1C(=O)N[C@@H](CC(N)=O)C(=O)N[C@@H](CCCNC(=N)N)C(=O)N[C@H](CCCCNC(=O)[C@H](CCCNC(=N)N)NC(=O)[C@H](CCCNC(=N)N)NC(=O)[C@H](CCCNC(=N)N)NC(=O)[C@H](CCCNC(=N)N)NC(=O)[C@H](CCCNC(=N)N)NC(=O)[C@H](CCCNC(=N)N)NC(=O)[C@H](CCCNC(=N)N)NC(=O)[C@H](N)CCCNC(=N)N)C(=O)N1CCC[C@H]1C(=O)N[C@H](CC(N)=O)C(=O)N[C@@H](Cc1ccc(O)cc1)C(=O)N[C@@H](CO)C(=O)N[C@@H](CCC(N)=O)C(N)=O)C(C)C` the inhibition [1] was “Active”, the Ratio IC50 [2] was 94 and the pIC50 [3] was 5.30. The pIC50 [4] was 5.12, the Ratio IC50 [5] was > 94 and the Drug metabolism [6] was “metabolite_detected”. For the same compound, the Ratio IC50 [7] was 16, the pIC50 [8] was 6.49 and the pIC50 [9] was < 4.52. For the same compound, the Ratio [10] was 1.52, the Ratio IC50 [11] was 23 and the pIC50 [12] was 4.52.
In the case of `C#CCN(C)CCC[C@H](NC(=O)[C@H](CO)NC(=O)[C@H](CCCNC(=N)N)NC(=O)[C@@H]1CCCN1)C(=O)N[C@@H](CC(C)C)C(=O)N[C@H](C(=O)N[C@@H](CCCNC(=N)N)C(=O)N[C@@H](CCCCN)C(=O)N1CCC[C@H]1C(=O)N[C@@H](CO)C(=O)N[C@@H](CC(=O)O)C(=O)N1CCC[C@H]1C(=O)N[C@@H](CC(N)=O)C(=O)N[C@@H](CCCNC(=N)N)C(=O)N[C@@H](CCCCN)C(=O)N1CCC[C@H]1C(=O)N[C@@H](CC(N)=O)C(=O)N[C@@H](Cc1ccc(O)cc1)C(=O)N[C@@H](CO)C(=O)N[C@@H](CCC(N)=O)C(N)=O)C(C)C`, the pIC50 [8] was 4.77.
`C#CCN(CCC[C@H](NC(=O)[C@H](CO)NC(=O)[C@H](CCCNC(=N)N)NC(=O)[C@@H]1CCCN1)C(=O)N[C@@H](CC(C)C)C(=O)N[C@H](C(=O)N[C@@H](CCCNC(=N)N)C(=O)N[C@@H](CCCCN)C(=O)N1CCC[C@H]1C(=O)N[C@@H](CO)C(=O)N[C@@H](CC(=O)O)C(=O)N1CCC[C@H]1C(=O)N[C@@H](CC(N)=O)C(=O)N[C@@H](CCCNC(=N)N)C(=O)N[C@@H](CCCCN)C(=O)N1CCC[C@H]1C(=O)N[C@@H](CC(N)=O)C(=O)N[C@@H](Cc1ccc(O)cc1)C(=O)N[C@@H](CO)C(=O)N[C@@H](CCC(N)=O)C(N)=O)C(C)C)Cc1ccccc1` was tested, and the pIC50 [8] was 4.40.
`CC(C)C[C@H](NC(=O)[C@H](CCCCN[C@H]1C[C@@H]1c1ccccc1)NC(=O)[C@H](CO)NC(=O)[C@H](CCCNC(=N)N)NC(=O)[C@@H]1CCCN1)C(=O)N[C@H](C(=O)N[C@@H](CCCNC(=N)N)C(=O)N[C@@H](CCCCN)C(=O)N1CCC[C@H]1C(=O)N[C@@H](CO)C(=O)N[C@@H](CC(=O)O)C(=O)N1CCC[C@H]1C(=O)N[C@@H](CC(N)=O)C(=O)N[C@@H](CCCNC(=N)N)C(=O)N[C@@H](CCCCN)C(=O)N1CCC[C@H]1C(=O)N[C@@H](CC(N)=O)C(=O)N[C@@H](Cc1ccc(O)cc1)C(=O)N[C@@H](CO)C(=O)N[C@@H](CCC(N)=O)C(N)=O)C(C)C` was tested, and the pIC50 [8] was 4.20.
With `CC(C)C[C@@H](NC(=O)[C@@H](CCCNN)NC(=O)[C@@H](CO)NC(=O)[C@@H](CCCNC(=N)N)NC(=O)[C@H]1CCCN1)C(=O)N[C@@H](C(=O)N[C@H](CCCNC(=N)N)C(=O)N[C@@H](CCCCNC(=O)COCCOCCNC(=O)[C@@H](CCCNC(=N)N)NC(=O)[C@@H](CCCNC(=N)N)NC(=O)[C@@H](CCCNC(=N)N)NC(=O)[C@@H](CCCNC(=N)N)NC(=O)[C@@H](CCCNC(=N)N)NC(=O)[C@@H](CCCNC(=N)N)NC(=O)[C@@H](CCCNC(=N)N)NC(=O)[C@@H](N)CCCNC(=N)N)C(=O)N1CCC[C@H]1C(=O)N[C@@H](CO)C(=O)N[C@@H](CC(=O)O)C(=O)N1CCC[C@H]1C(=O)N[C@@H](CC(N)=O)C(=O)N[C@@H](CCCNC(=N)N)C(=O)N[C@@H](CCCCN)C(=O)N1CCC[C@H]1C(=O)N[C@H](CC(N)=O)C(=O)N[C@@H](Cc1ccc(O)cc1)C(=O)N[C@@H](CO)C(=O)N[C@@H](CCC(N)=O)C(N)=O)C(C)C` the Ratio [13] was 0.96, the inhibition [1] was “Active” and the Ratio IC50 [2] was 94. The Ratio [14] was 0.99, the Ratio [15] was 1.01 and the Ratio [16] was 1.03. The pIC50 [3] was 4.89, the Ratio [17] was 1.05 and the Ratio [18] was 0.98. For the same compound, the pIC50 [4] was 4.63, the Ratio IC50 [5] was > 94 and the Drug metabolism [6] was “metabolite_detected”. For the same compound, the Ratio IC50 [7] was 16, the pIC50 [8] was 6.54 and the Ratio [19] was 1.73. For the same compound, the pIC50 [9] was < 4.52, the Ratio [20] was 1.29 and the Ratio [10] was 2.08. For the same compound, the Ratio IC50 [11] was 23, the inhibition [21] was “Dose-dependent effect” and the pIC50 [12] was 4.52.
With `CC(C)C[C@H](NC(=O)[C@H](CCCCN)NC(=O)[C@H](CO)NC(=O)[C@@H](CCCNC(=N)N)NC(=O)[C@H]1CCCN1)C(=O)N[C@H](C(=O)N[C@@H](CCCNC(=N)N)C(=O)N[C@@H](CCCCNC(=O)[C@@H](CCCNC(=N)N)NC(=O)[C@@H](CCCNC(=N)N)NC(=O)[C@@H](CCCNC(=N)N)NC(=O)[C@@H](CCCNC(=N)N)NC(=O)[C@@H](CCCNC(=N)N)NC(=O)[C@@H](CCCNC(=N)N)NC(=O)[C@@H](CCCNC(=N)N)NC(=O)[C@@H](N)CCCNC(=N)N)C(=O)N1CCC[C@H]1C(=O)N[C@@H](CO)C(=O)N[C@@H](CC(=O)O)C(=O)N1CCC[C@H]1C(=O)N[C@@H](CC(N)=O)C(=O)N[C@@H](CCCNC(=N)N)C(=O)N[C@@H](CCCCN)C(=O)N1CCC[C@H]1C(=O)N[C@H](CC(N)=O)C(=O)N[C@@H](Cc1ccc(O)cc1)C(=O)N[C@@H](CO)C(=O)N[C@@H](CCC(N)=O)C(N)=O)C(C)C` the inhibition [1] was “inactive” and the Ratio [10] was 1.06.
